# Data published in patent US8530491B2, “Antimalarial compounds with flexible side-chains” (Medicines for Malaria Venture (MMV), priority 2007, dated 2013).
# How the values were obtained:
# P. chabaudi ASP = assay: Standard 4-day Peters' test against P. chabaudi ASP (pyrimethamine-resistant) in mice; type: in vivo, Plasmodium chabaudi
# Protocol: (§1) Briefly, 20 gr CD1 male mice (Charles Rivers, UK) were kept in specific pathogen-free conditions and fed ad libitum. For oral administration, compounds were dissolved in standard suspending formula (SSV) [0.5% sodium carboxymethylcellulose, 0.5% benzyl alcohol, 0.4% Tween 80, 0.9% NaCl (all Sigma)] and for intraperitoneal or subcutaneous administration compounds were dissolved in 0.5% w/v hydroxypropylmethylcellulose, 0.4% v/v Tween 80, 0.5% V/v benzyl alcohol in de-ionised water]. Mice were infected intravenously with 4×10^6 infected red cells and treated orally (p.o.) with 0.2 ml of a solution of the test compounds two hours (day 0) and on days 1, 2 and 3 post-infection. Parasitaemia was determined by microscopic examination of Giemsa stained blood films taken on day 4. Microscopic counts of blood films from each mouse were processed using GraphPad Prism 4 (GraphPad Software, Inc., CA, USA) and expressed as percentages of inhibition from the arithmetic mean parasitaemias of each group in relation to the untreated group. Compounds were tested in an initial screening at 30 mg/kg/day against P. chabaudi AS (non-resistant) over the period described and percentages of inhibition calculated in relation to the untreated controls. Compounds giving 80% inhibition or above were then tested in the same model under a range of doses over the period described in order to obtain dose response curves and calculate their ED50 and ED90 values. […] From the ED90 values is clear that a number of compounds have exquisite activity in this model and are also tested in P. chabaudi ASP and P. berghei ANKA.
# P. berghei ANKA = assay: Standard 4-day Peters' test against P. berghei ANKA in mice; type: in vivo, Plasmodium berghei; settings: oral, lethal non-resistant strain
# Protocol: as §1
# [1] = Oral bioavailability and pharmacokinetics in male Sprague Dawley rats; type: in vivo; settings: for Oral BA: i.v. and oral dosing; for Vd: intravenous; for clearance: read-out: i.v. CL(plasma)
# Protocol: Rats had free access to water throughout the pre- and post-dose sampling period, and access to food was re-instated 4 hours post-dosing. Test compounds were administered intravenously as a 5 minute constant rate infusion (1.0 mL per rat) and orally by gavage (1.0 mL per rat). The IV formulations were typically buffered aqueous solutions containing a co-solvent if required for solubilization. The oral formulations were prepared as suspensions in hydroxypropylmethyl cellulose or carboxymethyl cellulose, each with the addition of Tween 80 and benzyl alcohol. Samples of arterial blood and total urine were collected up to 24 hours post-dose. Arterial blood was collected directly into borosilicate vials (at 4° C.) containing heparin, a protease inhibitor cocktail, potassium fluoride, and EDTA to minimise the potential for ex vivo degradation of the test compound in blood/plasma samples. Once collected, blood samples were centrifuged, supernatant plasma was removed and stored at −20° C., and plasma concentrations of test compound were determined by LCMS.
# P. chabaudi AS = assay: Standard 4-day Peters' test against P. chabaudi AS in mice; type: in vivo, Plasmodium chabaudi; settings: Plasmodium chabaudi, 96 h, oral, 4-day Peters' test; for ED50: 50% reduction in parasitaemia; for ED90: 90% reduction in parasitaemia
# Protocol: as §1
# [2] = molecular target: T1, Pf DHFR N51I + C59R + S108N + I164L (Plasmodium falciparum, UniProt A7UD81, C59R/I164L/N51I/S108N); assay: biochemical
# T1 construct: made in house; host or cells: E. coli BL21(DE3)pLysS
# T1 sequence (A7UD81 whole entry N51I/C59R/S108N/I164L): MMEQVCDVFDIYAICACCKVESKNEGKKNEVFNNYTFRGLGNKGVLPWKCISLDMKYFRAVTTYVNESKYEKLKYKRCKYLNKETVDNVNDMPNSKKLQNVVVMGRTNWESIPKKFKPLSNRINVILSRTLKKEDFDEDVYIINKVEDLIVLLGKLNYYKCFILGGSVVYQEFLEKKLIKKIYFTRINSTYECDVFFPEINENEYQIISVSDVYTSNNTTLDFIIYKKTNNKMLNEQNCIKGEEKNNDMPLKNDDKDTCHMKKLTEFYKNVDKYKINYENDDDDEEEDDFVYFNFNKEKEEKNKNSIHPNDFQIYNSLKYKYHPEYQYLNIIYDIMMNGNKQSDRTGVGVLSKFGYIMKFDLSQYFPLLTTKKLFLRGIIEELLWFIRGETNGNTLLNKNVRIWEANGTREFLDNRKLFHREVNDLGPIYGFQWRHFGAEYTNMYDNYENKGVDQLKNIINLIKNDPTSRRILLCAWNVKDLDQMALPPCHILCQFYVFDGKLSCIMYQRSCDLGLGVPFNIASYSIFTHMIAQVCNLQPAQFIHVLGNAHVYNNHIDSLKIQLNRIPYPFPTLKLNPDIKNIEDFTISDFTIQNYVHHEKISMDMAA
# Pf DHFR WT = molecular target: T2, Pf DHFR WT (Plasmodium falciparum, UniProt A7UD81); assay: Pf DHFR enzyme inhibition (Ki), wild type; type: biochemical
# T2 construct: made in house; host or cells: E. coli BL21(DE3)pLysS
# T2 sequence (A7UD81 1-608): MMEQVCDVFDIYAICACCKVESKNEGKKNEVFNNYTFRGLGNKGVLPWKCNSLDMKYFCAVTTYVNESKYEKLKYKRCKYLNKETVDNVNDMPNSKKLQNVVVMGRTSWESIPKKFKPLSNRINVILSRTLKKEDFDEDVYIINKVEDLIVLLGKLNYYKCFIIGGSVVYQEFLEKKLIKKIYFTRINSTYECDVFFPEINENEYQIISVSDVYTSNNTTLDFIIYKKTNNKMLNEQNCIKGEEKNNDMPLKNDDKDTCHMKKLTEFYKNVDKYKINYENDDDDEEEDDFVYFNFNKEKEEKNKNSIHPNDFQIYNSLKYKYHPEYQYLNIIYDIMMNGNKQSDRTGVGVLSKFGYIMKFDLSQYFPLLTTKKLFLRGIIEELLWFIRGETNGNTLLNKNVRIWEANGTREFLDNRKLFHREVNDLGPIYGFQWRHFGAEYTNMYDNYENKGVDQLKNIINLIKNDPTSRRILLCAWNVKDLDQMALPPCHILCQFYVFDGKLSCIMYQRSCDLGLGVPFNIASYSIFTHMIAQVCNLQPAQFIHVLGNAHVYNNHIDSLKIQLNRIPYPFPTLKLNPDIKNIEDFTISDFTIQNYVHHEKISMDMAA
# [3] = molecular target: T3, Pf DHFR N51I + C59R + S108N (Plasmodium falciparum, UniProt A7UD81, C59R/N51I/S108N); assay: biochemical
# T3 construct: made in house; host or cells: E. coli BL21(DE3)pLysS
# T3 sequence (A7UD81 whole entry N51I/C59R/S108N): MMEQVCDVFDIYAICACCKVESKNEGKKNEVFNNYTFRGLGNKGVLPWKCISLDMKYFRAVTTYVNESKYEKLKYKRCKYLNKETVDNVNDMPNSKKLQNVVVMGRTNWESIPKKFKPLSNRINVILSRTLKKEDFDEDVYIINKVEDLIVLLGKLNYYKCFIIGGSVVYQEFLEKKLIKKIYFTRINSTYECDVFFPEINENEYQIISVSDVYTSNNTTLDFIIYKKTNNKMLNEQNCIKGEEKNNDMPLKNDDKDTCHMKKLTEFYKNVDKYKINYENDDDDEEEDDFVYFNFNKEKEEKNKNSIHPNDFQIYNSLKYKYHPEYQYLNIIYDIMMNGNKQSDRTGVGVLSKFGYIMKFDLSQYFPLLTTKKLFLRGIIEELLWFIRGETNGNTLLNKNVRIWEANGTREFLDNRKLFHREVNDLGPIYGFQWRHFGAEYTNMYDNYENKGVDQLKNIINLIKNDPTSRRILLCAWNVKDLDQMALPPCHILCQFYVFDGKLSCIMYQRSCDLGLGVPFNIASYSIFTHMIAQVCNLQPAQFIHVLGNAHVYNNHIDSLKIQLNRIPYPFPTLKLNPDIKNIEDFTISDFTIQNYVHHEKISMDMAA
# [4] = Cytotoxicity in mammalian cells; type: cell-based; settings: African green monkey, Vero cells (African green monkey kidney epithelial cells)
# Pf DHFR C59R + S108N = molecular target: T4, Pf DHFR C59R + S108N (Plasmodium falciparum, UniProt A7UD81, C59R/S108N); assay: biochemical
# T4 construct: made in house; host or cells: E. coli BL21(DE3)pLysS
# T4 sequence (A7UD81 whole entry C59R/S108N): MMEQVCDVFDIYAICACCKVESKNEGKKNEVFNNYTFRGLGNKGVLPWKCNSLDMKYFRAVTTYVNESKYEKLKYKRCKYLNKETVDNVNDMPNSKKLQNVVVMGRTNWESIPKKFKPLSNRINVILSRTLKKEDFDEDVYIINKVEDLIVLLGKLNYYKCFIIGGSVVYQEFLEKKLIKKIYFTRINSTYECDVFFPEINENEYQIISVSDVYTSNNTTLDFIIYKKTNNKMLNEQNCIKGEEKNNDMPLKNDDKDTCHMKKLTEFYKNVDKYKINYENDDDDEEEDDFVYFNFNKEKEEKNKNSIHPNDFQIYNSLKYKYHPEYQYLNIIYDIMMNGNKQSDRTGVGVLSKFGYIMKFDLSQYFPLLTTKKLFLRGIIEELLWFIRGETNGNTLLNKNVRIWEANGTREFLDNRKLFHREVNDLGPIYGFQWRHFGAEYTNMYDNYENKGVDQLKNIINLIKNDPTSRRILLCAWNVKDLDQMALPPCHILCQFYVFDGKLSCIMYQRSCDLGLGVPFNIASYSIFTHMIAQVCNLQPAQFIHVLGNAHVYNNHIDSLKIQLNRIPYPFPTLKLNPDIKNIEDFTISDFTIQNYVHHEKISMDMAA
# [5] = tested on: P. falciparum TM4/8.2 (wild type); assay: In vitro anti-plasmodial activity, [3H]-hypoxanthine incorporation; type: cell-based, Plasmodium falciparum; settings: Plasmodium falciparum, read-out: IC50-P. falciparum TM4/8.2 (WT), TM4/8.2
# [6] = molecular target: T5, Pf DHFR C59R + S108N + I164L (Plasmodium falciparum, UniProt A7UD81, C59R/I164L/S108N); assay: biochemical
# T5 construct: made in house; host or cells: E. coli BL21(DE3)pLysS
# T5 sequence (A7UD81 whole entry C59R/S108N/I164L): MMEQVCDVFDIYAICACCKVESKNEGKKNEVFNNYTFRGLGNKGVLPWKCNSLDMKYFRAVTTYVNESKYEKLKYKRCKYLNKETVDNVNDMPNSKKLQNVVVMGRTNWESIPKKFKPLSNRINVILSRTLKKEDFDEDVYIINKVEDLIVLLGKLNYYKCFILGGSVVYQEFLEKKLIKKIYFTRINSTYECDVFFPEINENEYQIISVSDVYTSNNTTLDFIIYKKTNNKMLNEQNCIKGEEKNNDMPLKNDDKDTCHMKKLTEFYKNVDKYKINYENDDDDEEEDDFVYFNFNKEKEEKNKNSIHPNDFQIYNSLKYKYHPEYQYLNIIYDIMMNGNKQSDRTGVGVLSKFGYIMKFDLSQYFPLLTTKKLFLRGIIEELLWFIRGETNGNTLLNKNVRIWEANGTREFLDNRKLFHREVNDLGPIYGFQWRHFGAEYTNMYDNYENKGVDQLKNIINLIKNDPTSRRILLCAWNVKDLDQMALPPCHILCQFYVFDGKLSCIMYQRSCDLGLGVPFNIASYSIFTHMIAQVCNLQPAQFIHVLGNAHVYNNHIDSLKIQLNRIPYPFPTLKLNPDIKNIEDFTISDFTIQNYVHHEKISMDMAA
# S. aureus = assay: Antibacterial activity, minimal inhibitory concentration on agar plates; type: cell-based; settings: Staphylococcus aureus; complete inhibition of growth on agar plates
# E. coli = assay: as above; type: cell-based; settings: Escherichia coli; complete inhibition of growth on agar plates
SMILES,"ED50 (P. chabaudi ASP; Plasmodium chabaudi, po, read-out: ED50 P. chabaudi ASP)","ED90 P. chabaudi ASP (P. chabaudi ASP; oral, pyrimethamine-resistant strain)",ED50 (P. berghei ANKA; Plasmodium berghei),ED90 P. berghei ANKA (P. berghei ANKA),Oral BA [1],ED50 (P. chabaudi AS),ED90 (P. chabaudi AS),Ki [2],Ki (Pf DHFR WT),Ki [3],IC50 [4],Ki (Pf DHFR C59R + S108N),IC50 [5],Ki [6],"Vd ([1]; rat, plasma)","clearance ([1]; rat, plasma, iv, i.v. dosing)",MIC (S. aureus),MIC (E. coli),"half-life ([1]; rat, plasma, iv, i.v. dosing, read-out: i.v. t1/2 (converted))"
"CCc1nc(N)nc(N)c1OCCCOc1ccnc2ccccc12 [Compound P113, 2,4-diamino-6-ethyl-5-(3-(quinolin-4-yloxy)propoxy)pyrimidine]",0.003 mg/kg,0.01 mg/kg,0.01 mg/kg,0.03 mg/kg,<2.0 % of dose,0.006 mg/kg,0.01 mg/kg,4.33 ± 0.28 nM,1.21 ± 0.17 nM,1.82 ± 0.17 nM,119 nM,1.86 ± 0.11 nM,4 ± 3 nM,3.06 ± 0.21 nM,–,–,–,–,–
"CCc1nc(N)nc(N)c1OCCCOc1ccccc1OCCCC(=O)O [Compound P135, 2,4-diamino-6-ethyl-5-(3-(2-(3-carboxypropoxy)phenoxy)propoxy)pyrimidine]",–,–,–,–,7.0 % of dose,2 mg/kg,5.2 mg/kg,3.47 ± 0.09 nM,0.72 ± 0.03 nM,1.2 ± 0.05 nM,> 10000 nM,0.98 ± 0.003 nM,1.6 ± 0.6 nM,2.54 ± 0.04 nM,1.6 L/kg,49.1 mL/min/kg,> 50 µM,> 50 µM,–
"CCc1nc(N)nc(N)c1OCCCOc1ccnc2ccc(Cl)cc12 [Compound P149, 2,4-diamino-6-ethyl-5-(3-(6-chloro-quinolin-4-yloxy)propoxy)pyrimidine]",–,–,–,–,10 % of dose,0.01 mg/kg,0.02 mg/kg,4.23 ± 1.06 nM,1.05 ± 0.18 nM,3.4 ± 0.15 nM,–,2.37 ± 0.16 nM,3.2 ± 0.7 nM,3.66 ± 0.48 nM,51.2 L/kg,66.3 mL/min/kg,1 to 10 µM,10 to 50 µM,24.3 h
